Literature values, collected in patent US20180271924A1, “COMPOUND AND METHOD FOR REDUCING INFLAMMATION, PAIN, ALLERGY, FLU AND COLD SYMPTOMS” (priority 2018, published 2018).
Converted amounts (≈) assume the structure as drawn. Where two headings read alike, the source gives them in different places.

Columns and labels:
[1] = not given; remark: listed apart in the source
[2] = not given; remark: listed apart in the source
[3] = extract 100, 300, 500 mg/kg
[4] = subcutaneous
[5] = tested on: mu-, delta- and kappa-opioid binding sites
[6] = 5 mg THC; for analgesic effect: 50 mg codeine
[7] = for pain relief, THC versus codeine: 36 cancer pain patients, 20 mg THC, 120 mg codeine
[8] = not given; remark: listed apart in the source
[9] = for time of peak analgesic effect: pseudoakuammigine 5.0 mg/kg p.o., morphine 1.0 mg/kg s.c., indomethacin 2.5 mg/kg p.o.
ORL1-binding sites = ORL1-binding sites (Cavia porcellus, UniProt P47748)
mu-opioid binding sites = conditions: corresponds to K value
delta opioid receptor = target: T1, delta opioid receptor (Rattus norvegicus, UniProt P33533); conditions: rat CNS membranes
T1 construct: membranes prepared from rat central nervous system; from tissue; host or cells: rat central nervous system membranes

ORL1 receptors = target: T2, ORL1 receptors (Cavia porcellus, UniProt P47748); conditions: guinea pig small intestine
T2 construct: functional ORL1 receptors in the guinea pig small intestine; from tissue; host or cells: guinea pig small intestine

kappa receptors = target: T3, kappa receptors (Rattus norvegicus, UniProt P34975); conditions: rat CNS membranes
T3 construct: membranes prepared from rat central nervous system; from tissue; host or cells: rat central nervous system membranes

mu receptors = target: T4, mu receptors (Rattus norvegicus, UniProt P33535); conditions: rat CNS membranes
T4 construct: membranes prepared from rat central nervous system; from tissue; host or cells: rat central nervous system membranes

[10] = not given; remark: listed apart in the source
[11] = 20.0 mg/kg
[12] = tested on: dividing and non-dividing cells
[13] = 0.5 mg/kg
[14] = DPPH
[15] = extract 300, 500 mg/kg
[16] = extract 100, 300, 500 mg/kg; remark: listed apart in the source
[17] = not given; remark: listed apart in the source
[18] = human studies
[19] = 50 mg THC daily
[20] = mouse, in vivo
mast cells = conditions: induced by compound 48/80
[21] = extract 100, 300, 500 mg/kg; diazepam 0.1-1 mg/kg
[22] = extract 100, 300, 500 mg/kg; diazepam 0.1-1 mg/kg; caffeine 10, 30, 100 mg/kg
[23] = extract 100-500 mg/kg; diclofenac 10-100 mg/kg; morphine 1-10 mg/kg
[24] = 200 mg/kg
[25] = extract 100, 300, 500 mg/kg; diclofenac 10, 30, 100 mg/kg; 20 minutes observation
[26] = anesthetized rats; reversed by naloxone
[27] = not given; remark: listed apart in the source
[28] = mitragynine 2 mg/mL

Chain of ORL1-binding sites (P47748 whole entry): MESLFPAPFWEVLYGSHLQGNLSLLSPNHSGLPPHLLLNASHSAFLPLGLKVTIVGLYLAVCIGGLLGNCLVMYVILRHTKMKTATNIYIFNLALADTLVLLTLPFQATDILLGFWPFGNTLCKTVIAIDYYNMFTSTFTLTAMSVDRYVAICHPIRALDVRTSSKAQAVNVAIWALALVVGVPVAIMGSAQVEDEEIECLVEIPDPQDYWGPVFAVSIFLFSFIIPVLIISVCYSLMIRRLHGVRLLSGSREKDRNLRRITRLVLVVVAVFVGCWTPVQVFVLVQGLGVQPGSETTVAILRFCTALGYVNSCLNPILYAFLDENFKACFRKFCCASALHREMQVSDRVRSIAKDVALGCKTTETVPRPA
T4 sequence (P33535 whole entry): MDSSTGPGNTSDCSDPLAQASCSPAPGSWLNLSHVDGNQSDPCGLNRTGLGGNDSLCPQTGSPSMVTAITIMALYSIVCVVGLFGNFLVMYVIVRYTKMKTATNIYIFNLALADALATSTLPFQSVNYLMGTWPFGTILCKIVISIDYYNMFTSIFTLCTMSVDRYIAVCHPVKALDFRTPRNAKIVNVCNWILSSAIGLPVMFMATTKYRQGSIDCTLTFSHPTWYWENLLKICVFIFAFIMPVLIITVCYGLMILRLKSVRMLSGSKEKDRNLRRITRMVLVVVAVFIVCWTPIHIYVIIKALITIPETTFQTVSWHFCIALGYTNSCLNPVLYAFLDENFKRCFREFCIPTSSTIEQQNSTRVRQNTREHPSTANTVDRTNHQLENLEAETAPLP
T2 sequence (P47748 whole entry): as the sequence (P47748 whole entry) above
T1 sequence (P33533 whole entry): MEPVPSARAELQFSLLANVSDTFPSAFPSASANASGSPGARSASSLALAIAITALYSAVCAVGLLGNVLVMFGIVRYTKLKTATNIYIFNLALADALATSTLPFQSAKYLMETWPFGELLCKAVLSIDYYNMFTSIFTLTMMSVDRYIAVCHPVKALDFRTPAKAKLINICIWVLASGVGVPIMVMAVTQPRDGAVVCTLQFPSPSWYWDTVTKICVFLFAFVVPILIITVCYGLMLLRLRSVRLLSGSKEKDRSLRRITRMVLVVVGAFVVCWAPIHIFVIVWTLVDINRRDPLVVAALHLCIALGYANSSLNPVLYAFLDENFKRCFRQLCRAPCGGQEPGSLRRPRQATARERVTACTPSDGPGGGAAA
T3 sequence (P34975 whole entry): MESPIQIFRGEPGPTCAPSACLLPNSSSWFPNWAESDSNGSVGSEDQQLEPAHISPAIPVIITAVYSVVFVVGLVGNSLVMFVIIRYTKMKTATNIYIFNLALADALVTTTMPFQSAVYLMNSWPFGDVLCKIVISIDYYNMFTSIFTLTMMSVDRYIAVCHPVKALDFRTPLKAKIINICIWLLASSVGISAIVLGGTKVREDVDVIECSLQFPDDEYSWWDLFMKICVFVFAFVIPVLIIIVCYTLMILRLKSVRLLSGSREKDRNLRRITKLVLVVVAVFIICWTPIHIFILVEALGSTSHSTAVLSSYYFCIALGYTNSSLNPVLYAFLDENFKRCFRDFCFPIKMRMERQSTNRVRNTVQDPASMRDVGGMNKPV

Question: With `CCCCCc1cc(O)c2c(c1)OC(C)(C)[C@@H]1CCC(C)=C[C@@H]21` [Delta 1-THC] as the compound, how does the “dose of maximal effect in the PBQ test” value (oral) read?
Answer: 10 mg/kg

Question: For `COc1ccc2cc3[n+](cc2c1OC)CCc1cc2c(cc1-3)OCO2` [Umbellatine, umbellatine], which “analgesic activity, tail-flick” value ([1]; 100 mg/kg) is on record?
Answer: clearly active

Question: What about the “analgesic activity, tail-flick” value ([1]; 200 and 300 mg/kg) of the same compound?
Answer: comparable in efficacy to those of 6 mg/kg of morphine

Question: What about the “analgesic activity, hot plate” value ([2]; 10-300 mg/kg) of the same compound?
Answer: dose-dependently active

Question: And the “analgesic activity, hot plate” value ([2]; 200 and 300 mg/kg)?
Answer: comparable in efficacy to that obtained with 6 mg/kg of morphine

Question: With `CN1[C@@H]2CC[C@H]1C[C@@H](OC(=O)C(CO)c1ccccc1)C2` (stereo partly drawn) [Atropine] as the compound, how does the “protection against acetylcholine-induced bronchoconstriction and cough” value [3] read?
Answer: significantly (P<0.05-0.0001) protected

Question: With `CC[C@@H]1CN2CC[C@@]3(O)C(=Nc4cccc(OC)c43)[C@@H]2C[C@@H]1/C(=C\OC)C(=O)OC` [7-hydroxymitragynine] as the compound, how does the gastrointestinal transit [4] read?
Answer: inhibition of the gastrointestinal transit

Question: For `C=C(C)[C@@H]1CCC(C)=C[C@H]1c1c(O)cc(CCCCC)cc1O` [CBD, cannabidiol], which “effectiveness at inhibition of PBQ-induced writhing” value (oral, 100 mg/kg) is on record?
Answer: most effective

Question: For `COC(=O)C1=CO[C@@H](C)[C@@H]2CN3CCc4c([nH]c5ccccc45)[C@H]3C[C@H]12` [akuammigine], which “opioid binding (words)” value [5] is on record?
Answer: no opioid binding

Question: And the “opioid binding (words)” value ([5]; listed as Akuammigine)?
Answer: no affinity for any of the opioid binding sites

Question: For `COc1ccc2c3c1O[C@H]1[C@@H](O)C=C[C@H]4[C@@H](C2)N(C)CC[C@@]341` [codeine], which analgesic effect [6] is on record?
Answer: analgesic effect in comparison with placebo

Question: What about the “pain relief, THC versus codeine” value [7] of the same compound?
Answer: equally effective

Question: Which “inhibition of PBQ-induced writhing” value (doses higher than 10 mg/kg) does the source give for `CCCCCc1cc(O)c2c(c1)OC(C)(C)c1ccc(C)cc1-2` [CNB, cannabinol] here?
Answer: 40%

Question: Which “opioid binding (words)” value [5] does the source give for `C/C=C1/CN2CC[C@@]34c5ccccc5N(C)[C@]35OC[C@@]4(C(=O)OC)[C@H]1C[C@H]25` [pseudoakuammigine] here?
Answer: low affinity

Question: And the “opioid binding (words)” value ([5]; listed as Pseudoakuammigine)?
Answer: bound equally to both mu and delta-opioid binding sites

Question: And the “maximal inhibitory effect (anti-inflammatory)” value ([8]; 50 mg kg, p.o.)?
Answer: 44%

Question: What about the “activity on carrageenan-induced paw oedema” value ([8]; 1.0, 5.0, 50 mg/kg p.o.) of the same compound?
Answer: dose-dependent inhibitory activity

Question: And the “effect on electrically-induced contractions” value (opioid receptors; antagonised by naloxone)?
Answer: inhibited the electrically-induced contractions

Question: And the “ED50 (analgesic)” value ([9]; on molar basis)?
Answer: 10 muM

Question: What about the “times less potent than indomethacin as an analgesic” value ([9]; on molar basis) of the same compound?
Answer: 1.6 times

Question: And the “times less potent than morphine as an analgesic” value ([9]; on molar basis)?
Answer: 3.5 times

Question: And the “time of peak analgesic effect” value [9]?
Answer: 180 min

Question: What about the “affinity for ORL1-binding sites (words)” value (ORL1-binding sites) of the same compound?
Answer: little affinity

Question: For `C/C=C1/CN2CC[C@@]34c5cc(O)ccc5N(C)[C@]35OC[C@@]4(C(=O)OC)[C@H]1C[C@H]25` [akuammine], which affinity (mu-opioid binding sites) is on record?
Answer: 2.1 mM⁻¹

Question: What about the “opioid binding (words)” value [5] of the same compound?
Answer: low affinity

Question: What about the “affinity for delta opioid receptor relative to kappa and mu” value (delta opioid receptor) of the same compound?
Answer: ten times lower

Question: What about the “antagonism of nociceptin at functional ORL1 receptors” value (ORL1 receptors) of the same compound?
Answer: does not antagonize nociceptin

Question: And the “affinity for kappa receptors” value (kappa receptors)?
Answer: micromolecular affinities

Question: What about the “character at opioid receptors” value (opioid receptors) of the same compound?
Answer: opioid antagonist

Question: And the “affinity for mu receptors” value (mu receptors)?
Answer: micromolecular affinities

Question: What about the solubility in water [10] of the same compound?
Answer: slightly soluble in water

Question: And the “affinity for ORL1-binding sites (words)” value (ORL1-binding sites)?
Answer: neither akuammine nor any of the other alkaloids showed appreciable affinity

Question: And the “affinity for ORL1-binding sites (words)” value (ORL1-binding sites; listed as Akuammine)?
Answer: little affinity

Question: What does the source list for `CN1CC[C@]2(c3cccc4c3N[C@@H]3N(C)CC[C@]43[C@@]34CCN(C)[C@@H]3Nc3ccccc34)c3ccccc3N[C@H]12` [hodgkinsine]?
Answer: analgesic activity, hot-plate [11]: comparable with 6.0 mg/kg of morphine; cytotoxicity [12]: low cytotoxicity; analgesic activity, tail-flick [13]: comparable to that of 6.0 mg/kg of morphine

Question: With `O=C1O[C@H]([C@@H](O)CO)C(O)=C1O` [ascorbic acid] as the compound, how does the “EC50 (free radical scavenging)” value [14] read?
Answer: 1.07 µg/mL (≈ 6.08 µM)

Question: Which “histamine-induced bronchoconstriction and cough” value [15] does the source give for `COc1ccc(CN(CCN(C)C)c2ccccn2)cc1` [mepyramine] here?
Answer: reduced significantly (P<0.01-0.0001) bronchoconstriction and cough induced by histamine

Question: Which results are given for `COc1ccc2c3c1O[C@H]1[C@@H](O)CC[C@H]4[C@@H](C2)N(C)CC[C@@]341` [dihydrocodeine]?
Answer: cough count [16]: dose-dependently reduced (P<0.05) cough count; latency of cough [16]: increased significantly (P<0.01) the latency of cough

Question: With `CC(=O)Oc1cc(O[C@H](C)CCCc2ccccc2)cc2c1[C@@H]1C[C@H](O)CC[C@H]1[C@H](C)N2` [Levonantradol] as the compound, how does the “pain relief versus placebo” value ([17]; 1.5, 2, 2.5, 3 mg intramuscular, 56 patients) read?
Answer: all doses were significantly superior to placebo

Question: What about the “patients reporting at least one side-effect” value ([17]; in vivo) of the same compound?
Answer: 57%

Question: What about the analgesia versus placebo [18] of the same compound?
Answer: superior to placebo

Question: What about the sedation [18] of the same compound?
Answer: almost half the patients reported sedation

Question: Which “dose of maximal effect in the PBQ test” value (oral) does the source give for `CCCCCc1cc(O)cc(O)c1` [olivetol] here?
Answer: about 100 mg/kg

Question: What does the source list for `CCCCCc1cc(O)c2c(c1)OC(C)(C)[C@@H]1CCC(C)=C[C@@H]21` [THC, delta-9-tetrahydrocannabinol]?
Answer: effect on spasticity [6]: significant effect on spasticity; analgesic effect [6]: analgesic effect in comparison with placebo; morphine requirement [19]: morphine requirement was significantly reduced (P<0.01); pain relief versus placebo ([7]; 10 cancer pain patients, at doses of 15 and 20 mg): pain relief significantly superior to placebo; pain relief, THC versus codeine [7]: equally effective; analgesia versus placebo [18]: significantly superior to placebo; time of peak analgesia [18]: around 5 hours

Question: With `COc1ccc2c(c1)c(CC(=O)O)c(C)n2C(=O)c1ccc(Cl)cc1` [indomethacin, reference compound] as the compound, how does the “ED50 (analgesic)” value ([9]; on molar basis) read?
Answer: 6.3 muM

Question: And the “time of peak analgesic effect” value [9]?
Answer: 60 min

Question: Which “tracheal phenol red secretion (muco-suppressant)” value [20] does the source give for `O=C(O)c1cc(=O)c2c(OCC(O)COc3cccc4oc(C(=O)O)cc(=O)c34)cccc2o1` [sodium cromoglicate] here?
Answer: caused a reduction (P<0.01) in tracheal phenol red secretion

Question: What about the mast cell degranulation (mast cells) of the same compound?
Answer: reduce significantly (P<0.01) mast cell degranulation

Question: Which results are given for `CN1C(=O)CN=C(c2ccccc2)c2cc(Cl)ccc21` [diazepam]?
Answer: frequency of central zone entries [21]: dose dependently increased the frequency of central zone entries; effect in open arm test [22]: dose dependently and significantly increased the percentage of open arm entries

Question: With `CN1CC[C@]23c4c5ccc(O)c4O[C@H]2[C@@H](O)C=C[C@H]3[C@H]1C5` [morphine, reference compound] as the compound, how does the “tail withdrawal latency / antinociceptive effect” value [23] read?
Answer: significant (P<0.0001) dose dependent increase in tail withdrawal latencies

Question: What about the “ED50 (analgesic)” value ([9]; on molar basis) of the same compound?
Answer: 2.9 muM

Question: And the “time of peak analgesic effect” value [9]?
Answer: 30 min

Question: For `CC(=O)Oc1ccccc1C(=O)O` [aspirin], which mean percentage antipyrexia [24] is on record?
Answer: 29.0%

Question: With `O=C(O)Cc1ccccc1Nc1c(Cl)cccc1Cl` [diclofenac] as the compound, how does the abdominal writhes [25] read?
Answer: suppressed the writhing

Question: And the “tail withdrawal latency / antinociceptive effect” value [23]?
Answer: increased tail withdrawal latencies

Question: Which “effect in open arm test” value [22] does the source give for `Cn1c(=O)c2c(ncn2C)n(C)c1=O` [caffeine] here?
Answer: anxiogenic effect

Question: Which results are given for `CC[C@@H]1CN2CCc3c([nH]c4cccc(OC)c34)[C@@H]2C[C@@H]1/C(=C\OC)C(=O)OC` [mitragynine]?
Answer: gastric acid secretion [26]: inhibition of 2-deoxy-D-glucose-stimulated gastric acid secretion in a dose dependent manner; toxicity ([27]; dose levels of 800-900 mg/kg in rodents): no toxicity; lethality ([27]; oral 200 mg/kg, rats): lethal effects; nerve conduction, compound nerve action potential [28]: blocked the nerve conduction
